One substance from patent publication US20240382596A1, “COMPOSITION OF VANCOMYCIN AQUEOUS SOLUTION” (HAINAN POLY PHARM. CO., LTD., priority 2021, published 2024) can be followed below.

Data set [1] can be described thus: Stability of vancomycin eye drops, HPLC relevant substances. In kind it is physicochemical. The note with it: eye drops study, 0 day. The protocol: (§1) The embodiments are intended to facilitate understanding of the invention and should not be deemed as a limitation to the invention. • HPLC analysis conditions of the following embodiments were: • Chromatographic column: Welch Ultimate XB-C18 (250×4.6 mm, 5 μm) • Detection wavelength: 280 nm; • Column temperature: 30° C.; • Flow rate: 2.0 mL/min; • Injection volume: 20 μL; • Mobile phase: • Solution A: 4.0 mL of triethylamine was precisely measured, and water was added to bring the total volume to 2000 mL, and the pH of the solution was further adjusted to 3.20 with phosphoric acid; • Solution B: Acetonitrile-tetrahydrofuran-solution A=55−10−935, the pH was adjusted to 3.20 with phosphoric acid; • Solution C: acetonitrile-tetrahydrofuran-solution A=290−10−700, the pH was adjusted to 3.20 by phosphoric acid; • Elution gradient: […]
After being placed under accelerated conditions of 25° C./60% RH for 30 days, relevant substances were sampled and detected. The result is shown in Table 7, the percentage of impurities peak area is calculated by peak area normalization method.

A short description of data set [2]: Stability of vancomycin injection, HPLC relevant substances. The class given is physicochemical. Particulars: injection study, 0 day. The protocol:
as §1
After being placed under accelerated conditions of 25° C./60% RH for 30 days, relevant substances were sampled and detected.

The nature of data set [3]: PK test of vancomycin injection. In kind it is in vivo. The note with it: SD rats following a single intrathecal dose; range over G1-G3. The protocol:
Nine male SD rats were divided into three groups. […] Plasma samples were collected at 0.083, 0.167, 0.25, 0.5, 1, 2, 4, 6, 8, 12, and 24 h post-dosing in each group. The concentration of vancomycin in plasma samples was detected using an established LC-MS/MS method.

For the substance Vancomycin hydrochloride, in data set [1], the CDP-1 was found to be 0.32%, the RS2 stood at 0.53% and the “Vancomycin HCl” value was found to be 95.81%. In addition, in data set [2], the CDP-1 worked out at 0.32%, the RS2 worked out at 0.55% and the “Vancomycin HCl” value is given as 95.19%. In data set [3], the “elimination half-life (T½)” value was 40.7 to 50.5 min.
